According to publication PMC12621191, “Increasing the Chemical Space of L-SIGN Specific Glycomimetics” (Journal of Medicinal Chemistry, 2025):

Key:
L-SIGN = molecular target: T1, L-SIGN (Homo sapiens, UniProt Q9H2X3); test: SPR binding inhibition (competition) assay on immobilized SARS-CoV-2 Spike surface, L-SIGN; conditions: for Selectivity = (IC50 [DC-SIGN]/IC50 [L-SIGN]): L-SIGN vs DC-SIGN, SPR inhibition on Spike surface; for IC50 / L-SIGN IC50: SPR, Spike functionalized chip, L-SIGN 20 μM coinjected with ligand, pH 8, duplicates
T1 construct: L-SIGN 3G-ECD (amino acids 78 to 399); made in house
T1 sequence (Q9H2X3 78-399): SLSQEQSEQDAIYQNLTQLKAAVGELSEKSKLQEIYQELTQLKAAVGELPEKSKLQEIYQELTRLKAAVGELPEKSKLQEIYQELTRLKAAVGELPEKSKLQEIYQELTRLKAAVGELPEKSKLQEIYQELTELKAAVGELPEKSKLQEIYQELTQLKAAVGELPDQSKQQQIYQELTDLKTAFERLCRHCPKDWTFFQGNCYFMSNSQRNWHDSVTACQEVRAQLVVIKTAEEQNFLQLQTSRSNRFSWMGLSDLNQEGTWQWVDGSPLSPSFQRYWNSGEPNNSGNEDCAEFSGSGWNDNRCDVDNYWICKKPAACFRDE

DC-SIGN = molecular target: T2, DC-SIGN (Homo sapiens, UniProt Q9NNX6); test: SPR binding inhibition (competition) assay on immobilized SARS-CoV-2 Spike surface, DC-SIGN; conditions: Spike functionalized chip, DC-SIGN 20 μM coinjected with ligand, pH 8, duplicates
T2 construct: DC-SIGN 3G-ECD (amino acids 66 to 404); made in house
T2 sequence (Q9NNX6 66-404): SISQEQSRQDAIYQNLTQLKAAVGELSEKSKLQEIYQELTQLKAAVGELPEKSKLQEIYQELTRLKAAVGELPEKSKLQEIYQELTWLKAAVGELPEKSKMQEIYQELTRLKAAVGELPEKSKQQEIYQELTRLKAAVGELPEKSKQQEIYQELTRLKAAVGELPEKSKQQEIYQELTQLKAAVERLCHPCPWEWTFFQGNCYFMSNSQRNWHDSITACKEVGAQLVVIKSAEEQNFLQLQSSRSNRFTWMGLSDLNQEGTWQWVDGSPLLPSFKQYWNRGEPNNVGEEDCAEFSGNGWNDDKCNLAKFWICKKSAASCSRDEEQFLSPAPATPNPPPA

Structure (SMILES)	Selectivity = (IC50 [DC-SIGN]/IC50 [L-SIGN]) (L-SIGN)	IC50 (L-SIGN)	IC50 (DC-SIGN)	L-SIGN IC50 (L-SIGN)	Selectivity = (IC50 [DC-SIGN]/IC50 [L-SIGN]) (L-SIGN; listed as 51 (Man79))
N=C(N)NCc1cn([C@@H]2[C@@H](OCCCl)O[C@H](CO)[C@@H](O)[C@@H]2O)nn1 [Man84, reference compound]	61	19 ± 0.02 µM	1160 ± 25 µM		
OC[C@H]1O[C@H](OCCCl)[C@@H](n2cc(CNc3ncccn3)nn2)[C@@H](O)[C@@H]1O [compound 2]		602 ± 0.5 µM	798 ± 16 µM	Low affinity	
COc1nc(NCc2cn([C@@H]3[C@@H](OCCCl)O[C@H](CO)[C@@H](O)[C@@H]3O)nn2)nc(OC)n1 [compound 3, 2-Chloroethyl 2-Deoxy-2-(4-(((4,6-dimethoxy-1,3,5-triazin-2-yl)amino)methyl)-1,2,3-triazol-1-yl)-α-D-mannopyranoside]		453 ± 0.4 µM	555 ± 14 µM	Low affinity	
OC[C@H]1O[C@H](OCCCl)[C@@H](n2cc(CNC3=NCCN3)nn2)[C@@H](O)[C@@H]1O [compound 4]	76	15 ± 0.01 µM	1130 ± 26 µM		
OC[C@H]1O[C@H](OCCCl)[C@@H](n2cc(CNC3=NCCCN3)nn2)[C@@H](O)[C@@H]1O [compound 5, 2-Chloroethyl 2-Deoxy-2-(4-(((1,4,5,6-tetrahydropyrimidin-2-yl)amino)methyl)-1,2,3-triazol-1-yl)-α-D-mannopyranoside]	94	12 ± 0.01 µM	1130 ± 55 µM		
O=c1ccnc(NCc2cn([C@@H]3[C@@H](OCCCl)O[C@H](CO)[C@@H](O)[C@@H]3O)nn2)[nH]1 [compound 6, 2-Chloroethyl 2-Deoxy-2-(4-(((pyrimidin-4(3H)-onyl)amino)methyl)-1,2,3-triazol-1-yl)-α-D-manno Pyranoside]	25	30 ± 0.2 µM	750 ± 29 µM		
O=c1nccc(NCc2cn([C@@H]3[C@@H](OCCCl)O[C@H](CO)[C@@H](O)[C@@H]3O)nn2)[nH]1 [compound 7, 2-Chloroethyl 2-Deoxy-2-(4-(((pyrimidin-2(1H)-onyl)amino)methyl)-1,2,3-triazol-1-yl)-α-D-manno Pyranoside]	5	130 ± 1 µM	692 ± 8 µM		
OC[C@H]1O[C@H](OCCCl)[C@@H](n2cc(CNc3ccccn3)nn2)[C@@H](O)[C@@H]1O [compound 8, 2-Chloroethyl 2-Deoxy-2-((4-((pyridin-2-ylamino)methyl))-1,2,3-triazol-1-yl)-α-D-mannopyranoside]	8	101 ± 0.2 µM	822 ± 16 µM		
OC[C@H]1O[C@H](OCCCl)[C@@H](n2cc(CNc3ncc[nH]3)nn2)[C@@H](O)[C@@H]1O [compound 9, 2-Chloroethyl 2-Deoxy-2-(4-(((1H-imidazol-2-yl)amino)methyl)-1,2,3-triazol-1-yl)-α-D-mannopyranoside]	50	18 ± 0.1 µM	895 ± 8 µM		
OC[C@H]1O[C@H](OCCCl)[C@@H](n2cc(CNc3nc4ccccc4[nH]3)nn2)[C@@H](O)[C@@H]1O [compound 10, 2-Chloroethyl 2-Deoxy-2-(4-(((1H-benzo[d]imidazol-2-yl)amino)methyl)-1,2,3-triazol-1-yl)-α-D-mannopyranoside]	16	48 ± 0.4 µM	779 ± 24 µM		
COc1ccc2[nH]c(NCc3cn([C@@H]4[C@@H](OCCCl)O[C@H](CO)[C@@H](O)[C@@H]4O)nn3)nc2c1 [compound 11, 2-Chloroethyl 2-Deoxy-2-(4-(((5-methoxy-1H-benzo[d]imidazol-2-yl)amino)methyl)-1,2,3-triazol-1-yl)-α-D-mannopyranoside]	12	51.6 ± 0.7 µM	602 ± 12 µM		
NCc1cn([C@@H]2[C@@H](OCCCl)O[C@H](CO)[C@@H](O)[C@@H]2O)nn1 [compound 51, reference compound]		~300 µM	~300 µM		totally unselective
